{"source": "patent EP2276483B1", "about": "“SOLID FORMS COMPRISING (+)-2-[1-(3-ETHOXY-4-METHOXYPHENYL)-2-METHYLSULFONYLETHYL]-4-ACETYLAMINOISOINDOLINE-1,3-DIONE, COMPOSITIONS THEREOF, AND USES THEREOF” (CELGENE CORPORATION, priority 2008, dated 2009)", "target": "T1, PDE6 from bovine retinal rod outer segments (Bos taurus, UniProt P11541+P23439)", "T1 construct": "PDE6 from bovine retinal rod outer segments; from tissue; host or cells: bovine retinal rod outer segments", "T1 sequence (P11541 2-856 limits assumed)": "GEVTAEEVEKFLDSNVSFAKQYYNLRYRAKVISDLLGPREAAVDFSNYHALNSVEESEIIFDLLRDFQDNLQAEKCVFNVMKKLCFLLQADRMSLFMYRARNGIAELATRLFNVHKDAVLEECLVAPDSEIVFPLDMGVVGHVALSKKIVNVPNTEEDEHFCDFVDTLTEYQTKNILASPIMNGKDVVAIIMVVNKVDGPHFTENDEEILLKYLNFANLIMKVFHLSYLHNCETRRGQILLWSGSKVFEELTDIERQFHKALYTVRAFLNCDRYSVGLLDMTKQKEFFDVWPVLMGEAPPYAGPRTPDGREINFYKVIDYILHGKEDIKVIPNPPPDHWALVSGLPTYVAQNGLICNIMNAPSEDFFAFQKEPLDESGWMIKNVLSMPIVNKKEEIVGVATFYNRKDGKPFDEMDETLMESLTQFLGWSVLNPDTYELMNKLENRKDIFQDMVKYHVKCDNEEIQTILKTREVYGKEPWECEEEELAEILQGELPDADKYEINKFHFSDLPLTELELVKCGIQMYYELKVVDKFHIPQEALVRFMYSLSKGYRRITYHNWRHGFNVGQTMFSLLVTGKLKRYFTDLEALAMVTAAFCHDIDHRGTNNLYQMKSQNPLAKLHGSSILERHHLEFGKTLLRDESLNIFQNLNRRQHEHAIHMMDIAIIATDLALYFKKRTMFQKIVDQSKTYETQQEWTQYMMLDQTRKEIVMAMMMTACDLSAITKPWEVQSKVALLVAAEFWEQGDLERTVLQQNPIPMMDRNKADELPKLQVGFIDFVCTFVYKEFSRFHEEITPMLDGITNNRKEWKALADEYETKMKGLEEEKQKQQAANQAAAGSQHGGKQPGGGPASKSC", "T1 sequence (P23439 2-850 limits assumed)": "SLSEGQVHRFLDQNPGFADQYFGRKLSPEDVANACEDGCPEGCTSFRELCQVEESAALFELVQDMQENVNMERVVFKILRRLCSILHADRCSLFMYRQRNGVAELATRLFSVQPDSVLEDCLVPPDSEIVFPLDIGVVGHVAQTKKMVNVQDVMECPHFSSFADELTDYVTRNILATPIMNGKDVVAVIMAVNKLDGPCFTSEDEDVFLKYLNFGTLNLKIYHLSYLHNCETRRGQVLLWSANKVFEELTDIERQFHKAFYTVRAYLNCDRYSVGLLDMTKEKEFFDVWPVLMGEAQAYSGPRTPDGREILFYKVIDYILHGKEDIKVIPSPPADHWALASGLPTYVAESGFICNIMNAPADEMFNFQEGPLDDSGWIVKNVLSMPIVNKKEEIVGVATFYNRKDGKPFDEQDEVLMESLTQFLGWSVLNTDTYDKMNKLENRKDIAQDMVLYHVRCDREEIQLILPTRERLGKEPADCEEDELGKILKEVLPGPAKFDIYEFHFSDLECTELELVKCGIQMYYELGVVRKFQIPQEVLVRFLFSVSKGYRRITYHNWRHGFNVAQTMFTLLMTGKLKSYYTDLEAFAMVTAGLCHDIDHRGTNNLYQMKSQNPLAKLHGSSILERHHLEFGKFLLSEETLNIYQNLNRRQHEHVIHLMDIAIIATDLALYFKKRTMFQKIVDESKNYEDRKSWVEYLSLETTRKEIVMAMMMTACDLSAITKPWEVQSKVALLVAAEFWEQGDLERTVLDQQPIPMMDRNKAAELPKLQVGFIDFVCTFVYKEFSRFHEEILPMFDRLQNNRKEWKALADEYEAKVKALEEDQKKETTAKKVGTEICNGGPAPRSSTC", "test": "PDE6 enzyme assay", "type": "biochemical"}
{"molecule": "CCOc1cc(C(CS(C)(=O)=O)N2C(=O)c3cccc(NC(C)=O)c3C2=O)ccc1OC", "note": "(single isomer, unassigned; (+)) [Compound A, (+)-2-[1-(3-ethoxy-4-methoxyphenyl)-2-methylsulfonylethyl]-4-acetylaminoisoindoline-1,3-dione]", "values": [{"measurement": "PDE Specificity Ratio PDE4/PDE6", "setting": "from above data", "result": ">40000", "unit": "fold"}, {"measurement": "inhibition at 10 µM", "setting": "read-out: PDE6 (% inhib at 10 µM)", "result": -6, "unit": "%"}]}
